Columns and labels:
bone marrow and testes = assay: phospho-ERK activity and Egr-1 expression in bone marrow and testes in vivo; set-up: species or system mouse; conditions: 200 mg/kg intraperitoneally
Method: (§1) To establish a linkage between non-genomic effects of androgens and tissue responses in vivo, we examined the impact of loss of GPRC6A on the capacity of testosterone to stimulate phospho-ERK activity and early growth-responsive 1 (Egr-1) expression in bone marrow and testes in vivo (FIGS. 8D and 8E). To accomplish this, we administered testosterone at a dose of 200 MG/KG or vehicle intraperitonealy to wild-type and GPRC6A^−/− male mice.
as §1, with “(FIG.” for “in vivo (FIGS. 8D and”, “mg/kg” for “MG/KG”, “intraperitoneally” for “intraperitonealy”, “mice. Bone marrow was harvested at 20 and 60 minutes for assessment of ERK phosphorylation and Egr-1 mRNA expression.” for “mice.”

[1] = system: bone marrow stromal cells (BMSC); assay: phospho-ERK in bone marrow stromal cells from wild-type and GPRC6A-/- mice; format: cell-based, mouse
Method: The femurs and tibias from 8-week-old wild-type and GPRC6A^−/− mice were dissected, the ends of the bones were cut, and marrow was flushed out with 2 mL of ice-cold a-MEM containing 10% FBS using a needle and syringe. A suspension of bone marrow cells was obtained by repeated aspiration of the cell preparation through a 22-gauge needle, and nucleated cells were counted with a hemocytometer. Cells were seeded into 6-well plates at a density of 3×10^7 cells/mL and cultured for three days in a-MEM supplemented with 10% FBS, 100 kU/L of sodium penicillin G and 100 mg/L of streptomycin sulfate in a humidified incubator with 5% CO2 and 95% air at a temperature of 37° C. On day 3, all nonadherent cells were then removed with the first medium change and then the adherent cells (representing bone marrow-derived mesenchymal stem cells, BMSCs) were grown for additional periods of up 3 days in the same medium. After overnight quiescence, the cells were stimulated for 5 minutes by testosterone and p-estradiol at the concentrations as indicated.

GPRC6A [2] = target: T1, GPRC6A (Mus musculus, UniProt Q8K4Z6); assay: phospho-ERK activation in HEK-293 cells transfected with GPRC6A (immunoblot); format: cell-based; set-up: expressed in transfected cells; host or cells: HEK-293
T1 sequence (Q8K4Z6 21-928): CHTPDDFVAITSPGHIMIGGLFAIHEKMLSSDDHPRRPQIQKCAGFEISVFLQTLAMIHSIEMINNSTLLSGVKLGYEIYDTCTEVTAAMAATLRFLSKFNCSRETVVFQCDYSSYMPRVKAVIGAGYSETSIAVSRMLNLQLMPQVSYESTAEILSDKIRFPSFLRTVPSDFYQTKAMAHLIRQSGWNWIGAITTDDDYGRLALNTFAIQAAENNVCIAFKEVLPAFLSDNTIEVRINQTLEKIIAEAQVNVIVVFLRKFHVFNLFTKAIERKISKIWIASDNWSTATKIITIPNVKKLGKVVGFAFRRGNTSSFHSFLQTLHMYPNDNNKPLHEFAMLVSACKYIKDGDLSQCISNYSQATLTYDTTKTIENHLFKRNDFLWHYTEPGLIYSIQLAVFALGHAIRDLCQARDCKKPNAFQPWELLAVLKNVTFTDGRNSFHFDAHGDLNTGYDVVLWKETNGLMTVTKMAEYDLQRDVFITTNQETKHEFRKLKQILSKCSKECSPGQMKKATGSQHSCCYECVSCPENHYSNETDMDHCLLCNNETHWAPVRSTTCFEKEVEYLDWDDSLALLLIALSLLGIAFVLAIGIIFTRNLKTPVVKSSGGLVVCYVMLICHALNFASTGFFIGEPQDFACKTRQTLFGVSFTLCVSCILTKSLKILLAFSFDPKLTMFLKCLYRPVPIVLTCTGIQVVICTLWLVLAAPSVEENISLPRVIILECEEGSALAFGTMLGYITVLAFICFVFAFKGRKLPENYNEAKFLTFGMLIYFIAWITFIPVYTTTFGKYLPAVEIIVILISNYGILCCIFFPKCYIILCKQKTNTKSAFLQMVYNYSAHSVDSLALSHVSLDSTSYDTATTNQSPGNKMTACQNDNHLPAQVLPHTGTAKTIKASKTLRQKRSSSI
Method: Equal amounts of lysates were subjected to 10% SDS-PAGE, and phospho-ERK1/2 levels were determined by immunoblotting using antiphospho-ERK1/2 mitogen-activated protein kinase antibody (Cell Signaling Technology). […] An anti-peptide antibody was raised in a rabbit against a peptide ([…] (SEQ ID NO: 27)) corresponding to a sequence in the extracellular domain of mouse GPRC6A (in exon 1 of mouse GPRC6A gene) produced by Abgent (San Diego, Calif.). For phospho-ERK, the phospho-ERK1/2 levels were determined by immunoblotting using anti-phospho-ERK1/2 mitogen-activated protein kinase antibody (Cell Signaling Technology). Urinary β2-microglobulin was detected by rabbit polyclonal anti-β2-microglobulin antibody (Abcam Inc.). For aromatase expression analysis, the rabbit polyclonal anti-aromatase antibody (Abcam Inc.) and goat anti-rabbit IgG HRP secondary antibody (Santa Cruz Biotechnology Inc.) were used. Mouse anti-Actin antibody (Santa Cruz Biotechnology Inc.) was used for control protein loading.

GPRC6A [3] = target: T1, GPRC6A; assay: [3H]testosterone binding to membrane fractions of HEK-293 cells; set-up: expressed in transfected cells
Method: Membranes from HEK and HEK stably transfected with GPRC6A were prepared and stored at −80° C. The membrane preparations were diluted to 0.15-0.5 mg protein/ml in binding buffer (in mM: 20 HEPES, 100 NaCl, 6 MgCl2, 1 EDTA, and 1 EGTA) immediately before all binding assays. Total binding saturation curves were generated by incubating 250 μl of membrane preparation and 250 μl of [^3H]Testoterone (Testosterone-[1,2,6,7-3H(N)]; 1 mCi; Sigma, Chemicals, St. Louis, Mo.), dissolved in binding buffer (in mM: 20 HEPES, 100 NaCl, 6 MgCl2, 1 EDTA, and 1 EGTA) for final reaction concentrations ranging from 0.3 to 25 nM, for 40 min. After the 40-min incubation, the binding reactions were terminated by rapidly filtering 400 μl of the reaction over a presoaked Whatman, glass-fiber filter (pore size, 1 μm) to separate bound steroid from free steroid. The filter was immediately washed twice with 12.5 ml of wash buffer (PBS) and placed in a scintillation vial. Radioactivity was counted in a liquid scintillation counter (Beckman Instruments, Fullerton, Calif.). All steps of the binding assays were conducted at 4° C.

[4] = HEK-293 cells transfected with GPRC6A

C[C@]12CC[C@H]3[C@@H](CCC4=CC(=O)CC[C@@]43C)[C@@H]1CC[C@@H]2O [testosterone]
Egr-1 expression in bone marrow and testes (bone marrow and testes; GPRC6A-/- male mice): markedly attenuated | phospho-ERK activity in bone marrow and testes (bone marrow and testes; GPRC6A-/- male mice): markedly attenuated | Egr-1 expression in bone marrow and testes (bone marrow and testes; wild-type male mice): stimulated | phospho-ERK activity in bone marrow and testes (bone marrow and testes; wild-type male mice): stimulated | stimulation of phospho-ERK in BMSC ([1]; BMSC from GPRC6A-/- mice, testosterone up to 80 nM): only minimal effects | stimulation of phospho-ERK in BMSC ([1]; BMSC from wild-type mice): substantial stimulation of ERK | medium calcium concentration required for testosterone activation of GPRC6A (GPRC6A [2]): > 0.5 mM | activation of phospho-ERK in cytosol and nucleus (GPRC6A [2]; GPRC6A expressing HEK-293 cells): stimulated activation of phospho-ERK in both the cytosol and nucleus | GPRC6A-mediated activation of phospho-ERK (GPRC6A [2]; [4]): stimulated extracellular signal-regulated kinase phosphorylation (phospho-ERK) in a dose-dependent fashion | specific testosterone binding to plasma membranes (GPRC6A [3]; [4]): Significant amounts of specific testosterone binding | specific testosterone binding to plasma membranes (GPRC6A [3]; untransfected cells): negligible specific binding
